Experimental data from ChEMBL document CHEMBL1126233, “Derivatives of naphthalimide: new potent conformationally restricted antagonists of 5-HT3 receptors” (Bioorg Med Chem Lett, 1992).

What was measured:
[1] = target: T1, Serotonin 3 (5-HT3) receptor (Rattus norvegicus, UniProt P35563+Q9JJ16); assay: Binding affinity at 5-hydroxytryptamine 3 receptor in rat posterior cortex by [3H]-BRL 43694 displacement.; type: tissue-based, Brain
T1 sequence (P35563 whole entry): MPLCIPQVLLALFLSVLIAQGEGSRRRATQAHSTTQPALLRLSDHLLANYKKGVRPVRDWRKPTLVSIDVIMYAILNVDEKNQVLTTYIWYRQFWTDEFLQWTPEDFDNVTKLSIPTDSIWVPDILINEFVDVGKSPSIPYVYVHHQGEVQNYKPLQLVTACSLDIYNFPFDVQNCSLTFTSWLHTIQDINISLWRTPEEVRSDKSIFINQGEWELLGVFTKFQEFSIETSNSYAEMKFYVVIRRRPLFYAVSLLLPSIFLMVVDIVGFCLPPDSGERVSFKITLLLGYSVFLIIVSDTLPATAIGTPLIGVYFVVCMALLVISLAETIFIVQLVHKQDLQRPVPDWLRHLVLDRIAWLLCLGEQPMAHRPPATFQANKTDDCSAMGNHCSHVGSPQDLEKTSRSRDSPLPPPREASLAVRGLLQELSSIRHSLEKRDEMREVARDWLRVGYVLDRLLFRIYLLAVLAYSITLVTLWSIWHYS
T1 sequence (Q9JJ16 whole entry): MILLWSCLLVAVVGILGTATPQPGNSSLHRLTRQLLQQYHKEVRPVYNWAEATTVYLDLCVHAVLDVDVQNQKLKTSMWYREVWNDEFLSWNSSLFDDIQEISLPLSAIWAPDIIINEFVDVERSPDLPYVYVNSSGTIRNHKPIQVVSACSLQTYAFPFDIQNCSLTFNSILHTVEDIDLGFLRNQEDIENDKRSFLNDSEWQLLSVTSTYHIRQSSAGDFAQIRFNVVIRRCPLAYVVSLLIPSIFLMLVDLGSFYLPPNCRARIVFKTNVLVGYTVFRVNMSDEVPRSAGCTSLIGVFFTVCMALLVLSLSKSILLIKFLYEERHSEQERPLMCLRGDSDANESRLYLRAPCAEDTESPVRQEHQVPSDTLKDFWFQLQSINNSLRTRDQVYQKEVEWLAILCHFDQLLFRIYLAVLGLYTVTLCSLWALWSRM

Rattus norvegicus [2] = assay: Antagonism of the bradycardia induced by iv injection of 5-HT(10-30 ug/kg) was evaluated by the compound administration in rat; 0.3-3.4; type: functional; conditions: read-out: ID50 (the source's name)
Rattus norvegicus [3] = assay: Antagonism of the bradycardia induced by iv injection of 5-HT(10-30 ug/kg) was evaluated by the compound administration in rat; 0.7-3.6; type: functional; conditions: read-out: ID50 (the source's name)
Rattus norvegicus [4] = assay: Antagonism of the bradycardia induced by iv injection of 5-HT(10-30 ug/kg) was evaluated by the compound administration in rat; 82-190; type: functional; conditions: read-out: ID50 (the source's name)
Rattus norvegicus [5] = assay: Antagonism of the bradycardia induced by iv injection of 5-HT(10-30 ug/kg) was evaluated by the compound administration in rat; type: functional; conditions: read-out: ID50 (the source's name)
Rattus norvegicus [6] = assay: Antagonism of the bradycardia induced by iv injection of 5-HT(10-30 ug/kg) was evaluated by the compound administration in rat; 3-8; type: functional; conditions: read-out: ID50 (the source's name)
Rattus norvegicus [7] = assay: Antagonism of the bradycardia induced by iv injection of 5-HT(10-30 ug/kg) was evaluated by the compound administration in rat; 12-55; type: functional; conditions: read-out: ID50 (the source's name)
Rattus norvegicus [8] = assay: Antagonism of the bradycardia induced by iv injection of 5-HT(10-30 ug/kg) was evaluated by the compound administration in rat; 8-55; type: functional; conditions: read-out: ID50 (the source's name)
Rattus norvegicus [9] = assay: Antagonism of the bradycardia induced by iv injection of 5-HT(10-30 ug/kg) was evaluated by the compound administration in rat; 1.7-74; type: functional; conditions: read-out: ID50 (the source's name)
Rattus norvegicus [10] = assay: Antagonism of the bradycardia induced by iv injection of 5-HT(10-30 ug/kg) was evaluated by the compound administration in rat; 0.05-0.75; type: functional; conditions: read-out: ID50 (the source's name)
Rattus norvegicus [11] = assay: Antagonism of the bradycardia induced by iv injection of 5-HT(10-30 ug/kg) was evaluated by the compound administration in rat; 81-615; type: functional; conditions: read-out: ID50 (the source's name)
Rattus norvegicus [12] = assay: Antagonism of the bradycardia induced by iv injection of 5-HT(10-30 ug/kg) was evaluated by the compound administration in rat; 3.8-8.7; type: functional; conditions: read-out: ID50 (the source's name)
Rattus norvegicus [13] = assay: Antagonism of the bradycardia induced by iv injection of 5-HT(10-30 ug/kg) was evaluated by the compound administration in rat; 2.5-3.9; type: functional; conditions: read-out: ID50 (the source's name)
Rattus norvegicus [14] = assay: Antagonism of the bradycardia induced by iv injection of 5-HT(10-30 ug/kg) was evaluated by the compound administration in rat; 52-205; type: functional; conditions: read-out: ID50 (the source's name)

| SMILES | Ki [1] [nM] | further results |
| --- | --- | --- |
| COc1cc(N)c(Cl)cc1C(=O)N[C@H]1CN2CCC1CC2 [(R)ZACOPRIDE] | 2.6 | ED50 (Rattus norvegicus [2]): 0.001 mg/kg |
| Nc1ccc2c3c(cccc13)C(=O)N([C@H]1CN3CCC1CC3)C2=O | 0.15 | ED50 (Rattus norvegicus [3]): 0.0016 mg/kg |
| O=C1c2cccc3c(Cl)ccc(c23)C(=O)N1C1CN2CCC1CC2 (centres undefined) | 14 | ED50 (Rattus norvegicus [4]): 0.125 mg/kg |
| O=C1c2cccc3cccc(c23)CN1[C@@H]1CN2CCC1CC2 | 2.2 | – |
| O=C1c2cccc3c(Br)ccc(c23)C(=O)N1C1CN2CCC1CC2 (centres undefined) | 41 | ED50 (Rattus norvegicus [5]): > 0.25 mg/kg |
| O=C1c2cccc3c([N+](=O)[O-])ccc(c23)C(=O)N1C1CN2CCC1CC2 (centres undefined) | 31 | ED50 (Rattus norvegicus [6]): 0.00525 mg/kg |
| COc1ccccc1C(=O)NC1CN2CCC1CC2 (centres undefined) | 22 | ED50 (Rattus norvegicus [7]): 0.025 mg/kg |
| Nc1ccc2c3c(cccc13)C(=O)N([C@@H]1CN3CCC1CC3)C2=O | 23.5 | ED50 (Rattus norvegicus [8]): 0.021 mg/kg |
| O=C1c2cccc3cccc(c23)C(=O)N1C1CN2CCC1CC2 (centres undefined) | 2.7 | ED50 (Rattus norvegicus [9]): 0.011 mg/kg |
| O=C1c2cccc3cccc(c23)CN1[C@H]1CN2CCC1CC2 | 2.3 | – |
| COc1cc(N)c(Cl)cc1C(=O)N[C@@H]1CN2CCC1CC2 | 0.2 | ED50 (Rattus norvegicus [10]): 0.0002 mg/kg |
| CN1C2CCC1CC(N1C(=O)c3cccc4cccc(c34)C1=O)C2 (centres undefined) | 374 | ED50 (Rattus norvegicus [5]): > 0.25 mg/kg |
| O=C1c2cccc3cccc(c23)C(=O)N1[C@@H]1CN2CCC1CC2 | 61 | ED50 (Rattus norvegicus [11]): 0.224 mg/kg |
| O=c1[nH]c2ccc(Cl)cc2c(=O)n1C1CN2CCC1CC2 (centres undefined) | 30 | ED50 (Rattus norvegicus [5]): 0.08 mg/kg |
| O=C1c2cccc3cccc(c23)C(=O)N1[C@H]1CN2CCC1CC2 | 0.9 | ED50 (Rattus norvegicus [12]): 0.0057 mg/kg |
| Nc1ccc2c3c(cccc13)C(=O)N(C1CN3CCC1CC3)C2=O (centres undefined) | 0.5 | ED50 (Rattus norvegicus [13]): 0.003 mg/kg |
| CN1CCC(N2C(=O)c3cccc4cccc(c34)C2=O)CC1 | 15 | ED50 (Rattus norvegicus [5]): 0.5 mg/kg |
| O=c1[nH]c2ccccc2c(=O)n1C1CN2CCC1CC2 (centres undefined) | 80 | ED50 (Rattus norvegicus [14]): 0.103 mg/kg |
